From patent US20100183604A1, “PREVENTIVE/REMEDY FOR CANCER” (TAKEDA PHARMACEUTICAL COMPANY LIMITED, priority 2007, published 2010)
“Also recorded” adds a separate entry of the source.

What was measured:
[1] = tested on: trastuzumab low sensitive BT-474 cells; test: Viable cell count after HER2 inhibitor addition (no siRNA), low sensitive cell line; format: cell-based, human; settings: 5 days; for growth suppression: 1 μmol/L, no siRNA; for concentration dependence of growth (proliferation) suppression: range of final concentrations, similar level in both lines
Description: (§1) After culture for 5 days at 37° C., 5% CO2, the number of viable cells was counted.

[2] = tested on: BT474 cells highly sensitive to trastuzumab; test: Viable cell count after HER2 inhibitor addition (no siRNA), high sensitive cell line; format: cell-based, human; settings: 5 days; for growth suppression: 1 μmol/L, no siRNA; for concentration dependence of growth (proliferation) suppression: range of final concentrations, similar level in both lines
Description: as §1

CS(=O)(=O)CCNCc1ccc(-c2ccc3ncnc(Nc4ccc(OCc5cccc(F)c5)c(Cl)c4)c3c2)o1 [lapatinib]
growth suppression [1]: complete suppression of growth | concentration dependence of growth (proliferation) suppression [1]: suppressed in a concentration-dependent manner; also recorded: concentration-dependent growth suppression | growth suppression [2]: complete suppression of growth | concentration dependence of growth (proliferation) suppression [2]: suppressed in a concentration-dependent manner; also recorded: concentration-dependent growth suppression

CC(C)(O)CC(=O)NCCn1ccc2ncnc(Nc3ccc(Oc4cccc(C(F)(F)F)c4)c(Cl)c3)c21 [compound A, N-{2-[4-({3-chloro-4-[3-(trifluoromethyl)phenoxy]phenyl}amino)-5H-pyrrolo[3,2-d]pyrimidin-5-yl]ethyl}-3-hydroxy-3-methylbutanamide]
growth suppression [1]: complete suppression of growth | concentration dependence of growth (proliferation) suppression [1]: suppressed in a concentration-dependent manner; also recorded: concentration-dependent growth suppression | growth suppression [2]: complete suppression of growth | concentration dependence of growth (proliferation) suppression [2]: suppressed in a concentration-dependent manner; also recorded: concentration-dependent growth suppression
